Experimental data as given in US7253144B2, “Method for producing by cell-free protein synthesis system using thioredoxin-fused protein expression vector” (Riken, priority 2002, dated 2007).

Columns and labels:
[1] = target: thioredoxin-fused β2AR-Gs and liposome complex; assay: Ligand binding saturation experiment with [3H]DHA on reconstituted membrane fraction; set-up: species or system human; settings: average of three independent experiments; 0 to 25 nM [3H]DHA, 25° C., 60 minutes; read-out: binding constant (Kd value), average
Description: Subsequently, PBS was added to dilute the detergent, and 10% β-dodecylmaltoside (Nacalaitesque) was added dropwise to make the final concentration 1%. […] A complex of the reconstituted thioredoxin-fused β2AR-Gs after completion of the dialysis and the liposome was centrifuged for 1 hours at 100,000×g and 4° C., and the resultant precipitation fraction (reconstituted membrane fraction) was suspended in 50 μl of an incubation buffer (75 mM Tris-HCl (pH7.4), 12.5 mM MgCl2, 2 mM EDTA).
The ligand binding saturation experiment was conducted by incubating this reconstituted membrane fraction (complex of thioredoxin-fused β2AR-Gs and liposome) together with 0 to 25 nM tritium-labeled Dihidroalprenolol ([^3H]DHA) in 200 μl as a final volume of the incubation buffer at 25° C. for 60 minutes. A competition experiment was conducted by incubating the reconstituted membrane fraction described above together with 10 nM [^3H]DHA in the presence or absence of 10^−8 to 10^−2 MAlprenolol (Sigma).

[2] = target: T1, human β2AR expressed in an insect cell (Sf9 cell) (Homo sapiens, UniProt P07550); assay: Ligand binding saturation experiment with [3H]DHA, positive control receptor; settings: n=1, read-out: binding constant (Kd value)
T1 construct: expressed in transfected cells; host or cells: Sf9 insect cells
T1 sequence (P07550 whole entry): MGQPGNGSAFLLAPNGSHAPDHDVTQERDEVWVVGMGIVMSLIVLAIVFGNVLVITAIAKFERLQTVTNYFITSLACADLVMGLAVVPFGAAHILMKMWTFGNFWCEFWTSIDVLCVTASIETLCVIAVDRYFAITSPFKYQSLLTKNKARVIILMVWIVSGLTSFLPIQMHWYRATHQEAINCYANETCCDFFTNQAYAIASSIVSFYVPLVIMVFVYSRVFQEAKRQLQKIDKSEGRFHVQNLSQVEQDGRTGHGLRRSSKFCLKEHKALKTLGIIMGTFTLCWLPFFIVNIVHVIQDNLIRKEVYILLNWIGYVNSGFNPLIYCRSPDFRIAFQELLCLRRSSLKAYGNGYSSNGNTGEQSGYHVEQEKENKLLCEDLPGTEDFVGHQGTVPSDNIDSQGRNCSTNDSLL

`CCCc1ccccc1OCC(O)CNC(C)C` (centres unmarked) [[^3H]DHA, Dihidroalprenolol] was tested, and the Kd [1] was 5.5 ± 1.1 nM and the Kd [2] was 3.9 nM.
